Earlier results as cited in article PMC6780087 (Marine Drugs, 2019).

Experiments:
NaChBac [1] = details: ref [55]
NaChBac [2] = details: ref [54]

SMILES: CC(C)c1cccc(C(C)C)c1O [propofol]
- binding to NaChBac (NaChBac [1]): binding to multiple channel sites
- effect on NaChBac (NaChBac [2]): inhibits peak currents and promotes activation-linked inactivation in NaChBac
